Earlier results, collected in patent publication EP0112266B1, “Substituted tropyl and pseudotropyl benzoates and their use in migraine treatment” (MERRELL DOW FRANCE ET CIE, priority 1982, dated 1984).

Columns and labels:
[1] = slow intravenous injection, 10 mg
5-HT M-receptor = biological target: T1, 5-HT M-receptor (Oryctolagus cuniculus, UniProt G1TUQ4); conditions: potency as 5-HT M-receptor antagonist; literature values (Fozard et al, Eur. J. Pharmacol. 1978/1979)
T1 sequence (G1TUQ4 24-513): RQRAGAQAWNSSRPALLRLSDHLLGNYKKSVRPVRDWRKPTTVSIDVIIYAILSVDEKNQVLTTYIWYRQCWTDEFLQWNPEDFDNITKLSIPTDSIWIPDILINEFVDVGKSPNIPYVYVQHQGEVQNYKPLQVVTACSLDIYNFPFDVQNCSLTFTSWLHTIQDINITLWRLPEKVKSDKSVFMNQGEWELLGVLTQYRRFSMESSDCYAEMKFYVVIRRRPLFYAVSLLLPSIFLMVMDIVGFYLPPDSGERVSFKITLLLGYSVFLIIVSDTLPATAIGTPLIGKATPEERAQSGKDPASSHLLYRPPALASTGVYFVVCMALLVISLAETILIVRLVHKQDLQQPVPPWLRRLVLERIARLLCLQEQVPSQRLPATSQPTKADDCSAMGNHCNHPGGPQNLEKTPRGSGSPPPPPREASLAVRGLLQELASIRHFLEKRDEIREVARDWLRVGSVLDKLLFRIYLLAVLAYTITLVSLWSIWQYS

[2] = tested on: isolated guinea pig ileum; conditions: stated in Schultz et al, 1972

**Q.** Which “relief of acute migraine attack” value [1] does the source give for CCN(CC)CCNC(=O)c1cc(Cl)c(N)cc1OC [metoclopramide] here?
**A.** The value was “immediate relief”.

**Q.** With CN1[C@@H]2CC[C@H]1C[C@@H](OC(=O)c1ccccc1)C2 [benzoyl tropine] as the compound, how does the pA2 (5-HT M-receptor) read?
**A.** Its pA2 is 7.2.

**Q.** Which spasmolytic- inducing activity [2] does the source give for CN1[C@@H]2CC[C@H]1C[C@@H](OC(=O)c1ccccc1Cl)C2 [tropyl 2-chlorobenzoate] here?
**A.** The spasmolytic- inducing activity was “spasmolytic- inducing activity”.
